Data set [1] deals with Prostaglandin G/H synthase 1 (Homo sapiens, UniProt P23219). The data set is described as follows: Inhibition of human COX-1.
For another data set, the species on record is Homo sapiens. The data set is described as follows: Selectivity ratio of IC50 for human COX1 to IC50 for human COX2.
Data set [2] is described as follows: Half life in human at 10 ug, po. In kind it is ADME, organism-based. To be noted: in vivo.
Data set [3] concerns Rattus norvegicus. In words: Antiinflammatory activity in rat assessed as reduction of carrageenan-induced paw edema. Type of data set: functional. (In the carrageenan paw model, swelling and tenderness develop within hours.)
The species named for data set [4] is Rattus norvegicus. The data set is described as follows: Antiarthritic activity in rat assessed as reduction in adjuvant-induced arthritic pain. In kind it is functional.
Data set [5] is described as follows: Half life in cynomolgus monkey. Type of data set: ADME, organism-based, Macaca fascicularis. The conditions noted are these: in vivo.
The subject of data set [6] is Rattus norvegicus. The data set is described as follows: Antiinflammatory activity in rat air pouch model assessed as inhibition of carrageenan-induced PGE2 production administered 1 hr before carrageenan challenge. To be noted: for ED50: Rattus norvegicus. Type of data set: functional.
For data set [7], the species on record is Rattus norvegicus. The data set is described as follows: Analgesic activity against carrageenan-induced thermal hyperalgesia in rat. In kind it is functional.
Data set [8] is described as follows: Half life in dog. Type of data set: ADME, organism-based, Canis lupus familiaris. To be noted: in vivo.
Data set [9] is described as follows: Half life in rat. Type of data set: ADME, organism-based. To be noted: in vivo.
The test system of data set [10] is Rattus norvegicus. In words: Antiinflammatory activity in rat air pouch model assessed as inhibition of carrageenan-induced PGE2 production administered 1 hr after carrageenan challenge.

Prostaglandin G/H synthase 1, sequence (P23219 whole entry): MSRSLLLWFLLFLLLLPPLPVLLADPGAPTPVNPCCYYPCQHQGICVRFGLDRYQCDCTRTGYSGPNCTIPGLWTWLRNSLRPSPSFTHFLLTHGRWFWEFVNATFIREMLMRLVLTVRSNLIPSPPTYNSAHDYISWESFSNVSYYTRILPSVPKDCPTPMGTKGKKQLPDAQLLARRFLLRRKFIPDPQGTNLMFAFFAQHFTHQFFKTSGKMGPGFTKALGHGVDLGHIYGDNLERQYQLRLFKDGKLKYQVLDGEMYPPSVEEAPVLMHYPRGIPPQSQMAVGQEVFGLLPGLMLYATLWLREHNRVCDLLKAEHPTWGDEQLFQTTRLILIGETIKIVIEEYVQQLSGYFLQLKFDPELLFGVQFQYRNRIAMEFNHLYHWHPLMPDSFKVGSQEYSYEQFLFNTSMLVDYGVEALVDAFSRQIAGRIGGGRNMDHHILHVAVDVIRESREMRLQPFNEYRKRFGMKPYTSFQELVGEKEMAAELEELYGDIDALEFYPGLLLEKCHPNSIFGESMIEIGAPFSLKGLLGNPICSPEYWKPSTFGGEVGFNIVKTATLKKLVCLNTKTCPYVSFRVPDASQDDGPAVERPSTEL

Consider `CCc1cc(C)c2c(c1)C=C(C(=O)O)C(C(F)(F)F)O2` (stereo not given), for which the IC50 (commonly the point on the concentration scale where inhibition reaches its midpoint) in [1] worked out at 0.14 µM. The Ratio IC50 in the data set listed under Homo sapiens worked out at 0.5.

With `COc1cc(C)cc2c1OC(C(F)(F)F)C(C(=O)O)=C2` (stereo not given), the Ratio IC50 in the data set filed under Homo sapiens amounted to 2.9.

Turning to `CCc1cc(OC(F)(F)F)cc2c1O[C@@H](C(F)(F)F)C(C(=O)O)=C2`, the IC50 in data set [1] is 100 µM.

Take `Cc1cc2c(c(C)c1Cl)C=C(C(=O)O)[C@@H](C(F)(F)F)O2`: the half-life (in general, the time in which the quantity being followed falls by half) was 11 h in data set [2], 5.4 h in [5], 23 h in data set [8] and 4.7 h in [9]. For the same compound, the ED50 – broadly, the dose that gives a 50% effect, or the effect in half of the subjects – was determined as 8 mg/kg in the data set on Rattus norvegicus [3], 3.2 mg/kg in the data set listed under Rattus norvegicus [4], 0.41 mg/kg in the data set with Rattus norvegicus [6] and 7.6 mg/kg in the data set filed under Rattus norvegicus [7]. Further, the IC50 in data set [1] was 2.28 µM.

For the compound `COc1ccc2c(c1)C=C(C(=O)O)C(C(F)(F)F)O2` (stereo not given), the Ratio IC50 in the data set listed under Homo sapiens turned out to be 1.

On to `CCCc1cc(OC(F)(F)F)cc2c1OC(C(F)(F)F)C(C(=O)O)=C2` (stereo not given), for which the IC50 in data set [1] turned out to be 7 µM. The Ratio IC50 in the data set listed under Homo sapiens turned out to be 163.

As to `CCc1ccc2c(c1)C=C(C(=O)O)C(C(F)(F)F)O2` (stereo not given), in [1], the IC50 turned out to be 0.12 µM. In the data set filed under Homo sapiens, the Ratio IC50 came to 0.36. Also, the “inhibition (INH)” value in the data set on Rattus norvegicus [10] was determined as 90%.

In data set [1], `COc1cc(Cl)c2c(c1)C=C(C(=O)O)C(C(F)(F)F)O2` (stereo not given) returned an IC50 of 25.6 µM. For the same compound, the Ratio IC50 in the data set filed under Homo sapiens amounted to 107.

`Cc1cc2c(c(C)c1Cl)C=C(C(=O)O)[C@H](C(F)(F)F)O2` came in with an IC50 in [1] of 30.8 µM.

`Cc1cc(C)c2c(c1)C=C(C(=O)O)C(C(F)(F)F)O2` (stereo not given) gave an IC50 in data set [1] of 169 µM. Moreover, in the data set filed under Homo sapiens, the Ratio IC50 is 704.

`Cc1cc2c(c(C)c1Cl)C=C(C(=O)O)C(C(F)(F)F)O2` (stereo not given) displayed an IC50 in data set [1] of 29.8 µM. For the same compound, the Ratio IC50 in the data set filed under Homo sapiens amounted to 229.

Regarding `O=C(O)C1=Cc2cc(Cl)ccc2OC1C(F)(F)F` (stereo not given), the Ratio IC50 in the data set filed under Homo sapiens stood at 91.

On to `CCCc1cc(OC(F)(F)F)cc2c1O[C@H](C(F)(F)F)C(C(=O)O)=C2`, for which the “inhibition (INH)” value with Rattus norvegicus [6] is listed as more than 68%. The compound further showed an IC50 in data set [1] of 71.7 µM.

For `Cc1ccc2c(c1)C=C(C(=O)O)C(C(F)(F)F)O2` (stereo not given), the “inhibition (INH)” value with Rattus norvegicus [6] turned out to be 13%. In data set [1], this compound gave an IC50 of 224 µM. Moreover, in the data set filed under Homo sapiens, the Ratio IC50 is 896.

In [1], `Cc1cc(Cl)c(C)c2c1OC(C(F)(F)F)C(C(=O)O)=C2` (stereo not given) gave a concentration for half-maximal inhibition (IC50) of 2.58 µM. Further, the Ratio IC50 in the data set filed under Homo sapiens was 12.

Turning to `CCCc1cc(OC(F)(F)F)cc2c1O[C@@H](C(F)(F)F)C(C(=O)O)=C2`, in [1], half-maximal inhibition (IC50) was put at 100 µM.

The compound `CCc1cc(OC(F)(F)F)cc2c1OC(C(F)(F)F)C(C(=O)O)=C2` (stereo not given) had an IC50 in data set [1] of 0.5 µM.

For the compound `Cc1c(Cl)cc2c(c1C)O[C@H](C(F)(F)F)C(C(=O)O)=C2`, the “inhibition (INH)” value in the data set on Rattus norvegicus [10] worked out at 60%.

The compound `Cc1cc(Cl)c2c(c1)C=C(C(=O)O)C(C(F)(F)F)O2` (stereo not given) had an IC50 in data set [1] of 1.08 µM. In addition, in the data set listed under Homo sapiens, the Ratio IC50 was determined as 5.7.

Compound `O=Cc1ccc2c(c1)C=C(C(=O)O)C(C(F)(F)F)O2` (stereo not given) yielded an IC50 in data set [1] of 500 µM. Also, the Ratio IC50 in the data set listed under Homo sapiens turned out to be 685.

With `CCc1cc(OC(F)(F)F)cc2c1O[C@H](C(F)(F)F)C(C(=O)O)=C2`, the half-life in data set [2] is 13 h; in data set [5], 12 h; in data set [8], 7.7 h; in data set [9] it was 2 h. In addition, the ED50 with Rattus norvegicus [3] amounted to 3.8 mg/kg; in the data set filed under Rattus norvegicus [4], 0.8 mg/kg; with Rattus norvegicus [6], 1.87 mg/kg; in the data set filed under Rattus norvegicus [7] it was 5.6 mg/kg. In the data set with Rattus norvegicus [6], the “inhibition (INH)” value is reported as more than 72%. In addition, the IC50 in data set [1] stood at 19.9 µM.

Consider `O=C(O)C1=Cc2cc(OC(F)(F)F)ccc2OC1C(F)(F)F` (stereo not given) [OCAROCOXIB], for which, in data set [1], the IC50 was found to be 17 µM. In addition, the Ratio IC50 in the data set listed under Homo sapiens was 773.

For `COc1cc(OC(F)(F)F)cc2c1OC(C(F)(F)F)C(C(=O)O)=C2` (stereo not given), in data set [1], inhibition was half-maximal at 0.32 µM (IC50). Also, the Ratio IC50 in the data set filed under Homo sapiens was determined as 0.5.

As for `Cc1cc(OC(F)(F)F)cc2c1O[C@H](C(F)(F)F)C(C(=O)O)=C2`, the “inhibition (INH)” value with Rattus norvegicus [6] is reported as more than 68%.

For `C#Cc1ccc2c(c1)C=C(C(=O)O)C(C(F)(F)F)O2` (stereo not given), the “inhibition (INH)” value in the data set on Rattus norvegicus [6] was found to be 60%. This compound also came in with an IC50 in data set [1] of 94.2 µM. Moreover, the Ratio IC50 in the data set filed under Homo sapiens amounted to 1290.

`Cc1cc(Cl)cc2c1OC(C(F)(F)F)C(C(=O)O)=C2` (stereo not given) displayed an IC50 in data set [1] of 0.47 µM.

In data set [1], `C#Cc1cc(Cl)c2c(c1)C=C(C(=O)O)C(C(F)(F)F)O2` (stereo not given) gave an IC50 of 0.14 µM. Besides, in the data set listed under Homo sapiens, the Ratio IC50 was determined as 5.4.

Turning to `O=C(O)C1=Cc2cc(C(F)(F)F)ccc2OC1C(F)(F)F` (stereo not given), the IC50 in [1] amounted to 4.39 µM.

The compound `N#Cc1ccc2c(c1)C=C(C(=O)O)C(C(F)(F)F)O2` (stereo not given) registered an IC50 in [1] of 115 µM. Besides, the Ratio IC50 in the data set filed under Homo sapiens is 1040.

For the compound `Cc1cc(C)c2c(c1)C=C(C(=O)O)[C@@H](C(F)(F)F)O2`, the half-life is 57 h in data set [2], 28 h in data set [5], 19 h in [8] and 8.7 h in data set [9]. Further, the ED50 was 8.6 mg/kg in the data set with Rattus norvegicus [3], 10 mg/kg in the data set listed under Rattus norvegicus [4], 2 mg/kg with Rattus norvegicus [6] and 20.7 mg/kg in the data set listed under Rattus norvegicus [7]. Moreover, in the data set with Rattus norvegicus [6], the “inhibition (INH)” value was 80%. The compound also showed an IC50 in data set [1] of 100 µM.

Values taken from ChEMBL document CHEMBL1287644, “The novel benzopyran class of selective cyclooxygenase-2 inhibitors. Part III: the three microdose candidates” (Bioorg Med Chem Lett, 2010).
